Experimental data published in patent US11795135B2, “Prostacyclin compounds, compositions and methods of use thereof” (Insmed Incorporated, priority 2013, dated 2023).
Entries after “also recorded” stand apart in the source; their conditions may differ.

Experiments:
[1] = tested on: CHO-K1 cells; assay: CHO-K1 cell proliferation assay (Presto Blue); settings: unformulated alkyl esters, 48 hour incubation
Protocol: CHO-K1 cells were harvested when the cell monolayer was 50-90% confluent (use passage 4-11). Media was aspirated out of the flask, and cells were rinsed with 2 mL of F12 media. Next, 1 mL of pre-warmed (37° C.) 0.25% trypsin-EDTA (Life Technologies, Cat #: 25300054) was added, and cells were dislodged from the flask by tapping it on the side. Complete growth media (F12 (Life Technologies, Cat #: 31765092)+10% FBS (Hyclone, Cat #: SH30071.03)+1× Pen-Strep (Life Technologies, cat #15140-122) was then added at a volume of 10 mL. Cells were centrifuged at 250×g for 5 minutes at room temperature, and the media was aspirated. The cell pellet was resuspended in 10 mL complete growth media. Cell number was determined using a hemacytometer. Cells were then seeded at 2000 cells per well of a 96-well plate in 100 μL of complete growth media. The plate was incubated overnight at 37° C. and 5% CO2 in a water-jacketed incubator.
The next day, 80 μL of fresh complete media was added to each well, and CHO-K1 cells were challenged with treprostinil compound and composition treatments. The working solutions were prepared at 10× concentration, and following 2 fold serial dilutions, 20 μL aliquots were added per well to arrive at a final 1× concentration. Following a 48 hour incubation at 37° C. and 5% CO2 in a water-jacketed incubator, the inhibitory effect on cell proliferation was determined. Plates were analyzed using 20 μL of Presto Blue reagent (Life Technologies, cat #: A13262) per well. The reagent was mixed, and plates were incubated for 1 hour at 37° C. and 5% CO2 in a water-jacketed incubator. Plates were read using either a CytoFluor Series 4000 (PerSeptive BioSystems) or Synergy Neo microplate reader (BioTek) with emission λ: 590 nm and excitation λ: 560 nm.
at concentrations ranging from 0.55 μM to 125 μM. Following a 48 hour incubation period, the inhibitory effect of the treprostinil derivative compositions on cell proliferation was determined.
C2, C3, C4, C5, C6, C8, C10 or Cu straight chain alkyl, at dosages ranging from 0.098 μM to 25 μM. Following a 48 hour incubation period, the inhibitory effect on cell proliferation was determined.
Following a 72 hour incubation period, the inhibitory effect on cell proliferation was determined. Following a 48 hour incubation period, the inhibitory effect on cell proliferation was determined.
Similarly, CHO-K1 cells were challenged with the treprostinil compositions T612 (R2=C2), T613 (R2=C8) at concentrations ranging from 1.41 μM to 180 μM.

[2] = tested on: Rat alveolar NR8383 cells; assay: NR8383 cell proliferation assay (Presto Blue); type: cell-based; settings: unformulated alkyl esters, 72 hour incubation
Protocol: Rat alveolar NR8383 cells were harvested when the monolayer was 50-90% confluent (use passage 5-11). Because the NR8383 cells include both adherent and non-adherent cells, media was transferred to a 50 mL Falcon tube. To obtain the cells remaining in the flask, 2 mL of plain media was added, and the remaining cells were scraped out of the 75 cm^2 flask with a cell scraper and added to the 50 mL tube. […] SH30071.03)+1×Pen-Strep (Life Technologies, cat #: 15410-122)). Cell number was determined using a hemacytometer. […] Measurements and calculations were made as described above for the CHO-K1 cells.

[3] = Treprostinil alkyl ester conversion to treprostinil in monkey lung tissue homogenate; type: in vitro ADME; settings: 37° C., 200 nM, 4 hours, 10 mg/mL of protein
Protocol: (§1) Treprostinil alkyl ester conversion to treprostinil was also measured in the presence of rat, dog and monkey lung tissue homogenate at 37° C. Here, data were calculated based on fit of exponential increase to the maximum (experiments performed in duplicate). The results of this study are provided below in Table 2A and FIG. 37. […] Both FIG. 37 experiments (left and right graphs) were performed in duplicate and the lines represent nonlinear exponential regression assuming 1 phase decay.

[4] = Treprostinil alkyl ester conversion to treprostinil in rat lung tissue homogenate; type: in vitro ADME; settings: 37° C., 200 nM, 4 hours, 10 mg/mL of protein
Protocol: as §1

[5] = Treprostinil alkyl ester conversion to treprostinil in dog lung tissue homogenate; type: in vitro ADME; settings: 37° C., 200 nM, 4 hours, 10 mg/mL of protein
Protocol: as §1

[6] = Tolerability and pharmacokinetics in rats, T748 inhaled for 14 consecutive days; type: in vivo, rat; settings: T748, 0.6-18 μg/kg
Protocol: Body weights were recorded daily and organ weights (lungs, heart, liver) were measured 24 hr. after the last drug dose.

[7] = target: T1, EP2 prostanoid receptor (Homo sapiens, UniProt P43116); assay: GloSensor cAMP assay in CHO-K1 cells co-transfected with the EP2 receptor; type: cell-based; settings: for Max cAMP level (Fold): CHO-K1 cells
T1 construct: host or cells: CHO-K1
Text: cAMP is a second messenger involved in signal transduction of G-protein coupled receptors (GPCRs) acting through Gα-s and Gα-i proteins. Because the treprostinil receptor is a GPCR, the assay provides an indication of whether the respective prostacyclin compound (or metabolite thereof) binds its receptor and activates the GPCR cell signaling cascade. The GloSensorTM assay harnesses a genetically modified form of firefly luciferase into which a cAMP-binding protein moiety has been inserted. Upon binding of cAMP, a conformational change is induced leading to increased light output. The EP2 prostanoid receptor was co-transfected with the GloSensorTM plasmid (Promega) into CHO-K1 cells as follows. CHO-K1 cells were harvested when the monoloayer was at 50-90% confluence. First, cells were washed with 5 mL PBS. […] The media was aspirated, and the cell pellet was resuspended in 10 mL of growth media. Cell number was determined using a hemacytometer. Each well of a culture treated 96 well flat bottom plate (Costar, Cat #: 3917) was seeded with 1×10^4 cells per 100 μL antibiotic-free growth media. […] For small scale transfections of up to 20 wells, the pGLoSensor-22F cAMP plasmid (Promega, Cat #: E2301) (2 μg): (EP2) (10 ng) (Origene, Cat #: SC126558):pGEM-3Zf(+) (10 ng) (Promega, Cat #: P2271) ratio was diluted to a final concentration of 12.6 ng/μL (total plasmid) in Opti-MEM I reduced-serum medium (Life Technologies, Cat #: 1985062). Next, 6 μL of FuGENE HD transfection reagent (Promega, Cat #: E2311) was added to 160 μL of diluted plasmid and mixed carefully by gentle pipetting. The complex was incubated at room temperature for 0 to 10 minutes, and then 8 μL of the complex was added per well of a 96 well white assay plate (Costar, Cat #: 3917) and gently mixed without disturbing the cell monolayer. […] Following incubation, cells were treated and analyzed. For larger scale transfections, the aforementioned steps were scaled up accordingly, and cells were frozen following the last incubation. In order to prepare frozen transfected CHO-K1 cells, the media was aspirated from culture flasks and cells were rinsed with 5 mL PBS. […] Cell number was determined using a hemacytometer. The media was aspirated, and the cell pellet was resuspended in freezing media (Millipore, cat #: S-002-5F) at 2.5×10^6 cells/vial. Transfected cells were incubated overnight at -80° C. before transfer to liquid nitrogen for long term storage. […] In preparation for cAMP measurement, the cells were equilibrated with the GloSensor cAMP reagent prior to treatment. For equilibration, the medium was carefully removed from the individual well. Next, 100 μL of equilibration medium ([…] of Glosensor Reagent stock solution (Promega, Cat #: E291), 10% FBS (Hyclone, Cat #: SH30071.03) and 88% CO2 independent medium (Life Technologies, Cat #: 18045088)) was added per well of the 96-well plate, and added to the side of each well. The plate was then incubated for 2 hours at room temperature. A first pre-read measurement was taken using a microplate reader (MicroLumat Plus). Plates were incubated for an additional 10 minutes at room temperature, followed by a second pre-read measurement. […] Following treatment, each plate was read every 5 minutes for the duration of the assay using a microplate reader (MicroLumat Plus). In order to determine the fold change in cAMP relative to the control, the transfection efficiency was first determined by dividing the second pre-read measurement by the average of the corresponding pre-read measurements. Next, the normalized relative light units (RLUs) of the samples were determined by dividing the plate read measurement by the transfection efficiency. The fold change in cAMP relative to the control was then determined by dividing the normalized RLU of the samples by the normalized RLU of the control. The cAMP assay was validated using free treprostinil. […] Luminescence was then measured at room temperature. […]

[8] = tested on: Cough Reflex in Guinea Pigs; assay: Cough reflex in guinea pigs (whole body plethysmograph); type: in vivo, guinea pig
Protocol: T623 has the following components:
Aerosols were generated with an Ultra-Neb Pro nebulizer (nebulizer output 0.36 mL/min.) that was mixed with inspired air delivered at a rate of 2 L/min. The PBS or drugs were delivered for 10 min. and the number of coughs recorded during and for 20 min. after the delivery. Coughs were detected by visual observations, plethysmograph recordings and cough sounds.

[9] = Treprostinil pharmacokinetics in anaesthetised, ventilated rats after nebulized dosing; type: in vivo, rat; settings: nebulized TRE solution
Protocol: Male Sprague Dawley rats were anaesthetised and prepared with endotracheal tube for ventilation. The right femoral vein was cannulated to facilitate blood collections. Terminal lung samples were taken for analysis only 6 hours after dosing. […] Systemic blood pressure (mSAP), heart rate (HR), and arterial oxygen saturation (SaO2). Physiologic parameters were measured during normoxia (fraction of inspired oxygen [FrO2]=0.21, SaO2≈90%) and for 2 to 3 hours during hypoxia (FrO2=0.10, SaO2≈50%).

[10] = dog, in vivo
Protocol: Twelve beagle dogs of either sex were randomly assigned to different inhaled doses of treprostinil in PBS or the compound of Formula (A) wherein
Formulations were nebulized with an Aeroneb nebulizer (MMAD: 2.5-4 μm) delivered into a 500 ml expansion chamber. Formulations were nebulized for 2 min at ventilator settings of 90 ml/breath, 15 breaths/min (delivered volume=2.7 L) and collected on a filter. Drug amount (m) on the filter was measured by HPLC to calculate the concentration of drug delivered through the ventilator circuit (μg/L).
Dosimetry was performed in propofol-anesthetized dogs in which nebulized drugs were introduced into a mixing chamber interposed on the inspiratory limb of a canine respirator. Technical trials were performed before each experiment to measure the concentration of drug (μg/L) delivered for each breath. The inhaled drug dose (μ/kg) was calculated using the formula: Inhaled Drug Dose (μg/kg)=Drug Conc. (μg/L)×Minute Ventilation (L/min.)×Time (min.)/Body Weight (kg). […] Clinical signs were monitored over this 72 hr. period.
Dosimetry was performed in propofol-anesthetized, artificially ventilated dogs in which nebulized drugs were introduced into a mixing chamber interposed on the inspiratory limb of the respirator. […] Clinical signs (cough, rapid shallow breathing, emesis and pale gums) were also monitored.

[11] = nebulized concentration of 30 μg/mL

T1 sequence (P43116 whole entry): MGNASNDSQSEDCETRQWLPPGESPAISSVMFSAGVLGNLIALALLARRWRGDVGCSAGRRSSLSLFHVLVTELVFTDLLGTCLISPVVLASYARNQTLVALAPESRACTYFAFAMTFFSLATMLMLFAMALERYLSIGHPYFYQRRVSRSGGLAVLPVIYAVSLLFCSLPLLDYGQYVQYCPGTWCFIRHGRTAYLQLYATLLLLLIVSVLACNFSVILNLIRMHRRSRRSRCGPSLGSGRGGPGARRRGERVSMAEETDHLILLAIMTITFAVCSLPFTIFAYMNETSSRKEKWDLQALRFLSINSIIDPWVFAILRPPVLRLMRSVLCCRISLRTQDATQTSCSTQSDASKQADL

CCCCCCCCOC(=O)COc1cccc2c1C[C@H]1C[C@@H](O)[C@H](CC[C@@H](O)CCCCC)[C@H]1C2 [Compound C8-TR, treprostinil octyl ester]
Effect on cell proliferation, CHO-K1 Cells (0.195 μM-25 μM) [1]: showed inhibition of cell proliferation
Effect on cell proliferation, NR8383 Cells (0.195 μM-25 μM) [2]: showed some inhibition of cell proliferation
Rate of treprostinil alkyl ester conversion [3]: 17.3 nmOL/h * g of protein
Rate of treprostinil alkyl ester conversion [4]: 32.5 nmOL/h * g of protein
Rate of treprostinil alkyl ester conversion [5]: 49.8 nmOL/h * g of protein

CCCCCCCCCCCCOC(=O)COc1cccc2c1C[C@H]1C[C@@H](O)[C@H](CC[C@@H](O)CCCCC)[C@H]1C2 [Compound C12-TR, dodecyl-treprostinil]
Effect on cell proliferation, CHO-K1 Cells (0.195 μM-25 μM) [1]: No detectable cell inhibition
Effect on cell proliferation, NR8383 Cells (0.195 μM-25 μM) [2]: No detectable cell inhibition
Rate of treprostinil alkyl ester conversion [3]: 0.6 nmOL/h * g of protein
Rate of treprostinil alkyl ester conversion [4]: 1.1 nmOL/h * g of protein
Rate of treprostinil alkyl ester conversion [5]: 2.2 nmOL/h * g of protein

CCCCCCCCCCCCCCCCOC(=O)COc1cccc2c1C[C@H]1C[C@@H](O)[C@H](CC[C@@H](O)CCCCC)[C@H]1C2 [Compound C16-TR, hexadecyl-treprostinil]
tolerability, body weights and organ weights [6]: no tolerability issues or significant changes (relative to PBS) in body weights and organ weights; also recorded: well tolerated with no evidence of body weight and organ weight change
ranking of activity of the treprostinil compounds ([7]; kinetic profile, 10 μM and 5 μM, FIG. 21): C12-TR>C14-TR>5-nonanyl-TR>C16-TR

CCCCC[C@H](O)CC[C@@H]1[C@H]2Cc3cccc(OCC(=O)O)c3C[C@H]2C[C@H]1O [Treprostinil, (1R,2R,3aS,9aS)-[[2,3,3a,4,9,9α-hexahydro-2-hydroxy-1-[(3S)-3-hydroxyoctyl]-1H-benz[f]inden-5-yl]oxy]acetic acid]
exposure concentration consistently evoking cough ([8]; 1-300 μg/ml tested): ≥ 30 µg/mL
cough bouts [8, 11]: 1-4
cough response [8, 11]: consistent cough in 7 of 7 guinea pigs
total number of coughs ([8]; nebulized concentration of 30 μg/mL, 10 min delivery + 20 min): 36±9 coughs
time beyond which measurable levels of TRE were not seen in the blood plasma [9]: ≤ 4 h
cAMP levels sustained for ([7]; 10 μM, composition, FIG. 3A): not exhibited
Max cAMP level (Fold) ([7]; Effect of nebulization (FIG. 6), head prints (5 μM)): ~15 Fold
EC50 ([7]; cAMP response in CHO-K1 cells, 4.5 hr incubation): 0.2 µM
Max cAMP level (Fold) ([7]; compositions shown in FIG. 3, 8 hours time course): ~16 Fold
Max cAMP level (Fold) ([7]; compositions shown in FIG. 4, 5 μM, 8 hours time course): ~14 Fold
period over which plasma levels of treprostinil were sustained [10]: disappeared within a few hours
